Like-named read-outs stand apart in the source and are kept apart here.
T1: OATP1B3 (Homo sapiens, UniProt Q9NPD5)
T1 sequence (Q9NPD5 1-702): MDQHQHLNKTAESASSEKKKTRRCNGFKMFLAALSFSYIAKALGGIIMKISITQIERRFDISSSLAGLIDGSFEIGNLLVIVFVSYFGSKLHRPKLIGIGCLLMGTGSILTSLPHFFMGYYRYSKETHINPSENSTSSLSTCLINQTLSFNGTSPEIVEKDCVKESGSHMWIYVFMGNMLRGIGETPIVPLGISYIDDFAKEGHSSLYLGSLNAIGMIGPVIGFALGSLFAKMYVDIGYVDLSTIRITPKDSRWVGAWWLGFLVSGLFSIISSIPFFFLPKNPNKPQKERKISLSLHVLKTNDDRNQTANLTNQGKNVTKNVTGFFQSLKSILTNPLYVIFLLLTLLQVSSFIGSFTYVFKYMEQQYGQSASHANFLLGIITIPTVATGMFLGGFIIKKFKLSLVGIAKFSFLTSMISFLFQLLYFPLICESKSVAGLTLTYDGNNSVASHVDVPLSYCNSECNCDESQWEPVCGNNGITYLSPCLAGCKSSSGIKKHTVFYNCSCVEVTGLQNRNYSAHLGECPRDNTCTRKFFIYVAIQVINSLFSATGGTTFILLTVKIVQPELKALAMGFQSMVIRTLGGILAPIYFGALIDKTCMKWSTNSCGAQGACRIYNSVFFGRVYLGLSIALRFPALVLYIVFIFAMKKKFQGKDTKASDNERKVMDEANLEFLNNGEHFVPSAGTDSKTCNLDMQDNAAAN


Tests used:
UGTs = assay: Inhibition of EZE glucuronidation by bile acids in rat liver S9; type: in vitro ADME; details: liver S9 fractions, pH 7.4, probe EZE (ezetimibe), 3 μM; formation of EZE-Ph; rat liver S9, 3 μM EZE, bile acids up to 100 μM; read-out: inhibition of EZE-Ph generation
Description: To evaluate the effect of hepatic impairment on the hepatic metabolism of EZE, 0.3 μM, 3 μM, and 30 μM EZE were incubated with rat liver S9 fractions (2 mg of protein/mL) at 37 °C for 60 min in the Tris-HCl-buffered system (100 mM, pH 7.4), consisting of UDPGA (1 mM), MgCl2 (10 mM), and alamethicin (25 μg/mL). To investigate the effect of bile acids on the metabolism of EZE in the liver, 3 μM EZE was incubated with rat or human liver S9 fractions (2 mg of protein/mL) at 37 °C for 60 min in the Tris-HCl-buffered system with or without bile acids at 1, 10, and 100 μM. The total volume of the incubation system was 100 μL. The reactions were terminated by adding 100 μL of ice-cold acetonitrile. Samples were stored at −20 °C until analysis. EZE and EZE-Ph were detected by liquid chromatography with tandem mass spectrometry (LC-MS/MS).

rat primary hepatocytes = assay: Inhibition of EZE-Ph uptake into rat primary hepatocytes by bile acids and rifampicin; details: 10 μM EZE-Ph, 10 min
Description: Rat primary hepatocytes were isolated from male SD rats as previously described [34]. Fresh rat hepatocytes (120,000 per well) were cultured in Williams’ E medium (containing 0.1 μM dexamethasone, 5% fetal bovine serum, 1% penicillin G/streptomycin, 1% GlutaMAX-I, and 1% insulin–transferrin–selenium) on collagen I-coated 48-well plates. Rat hepatocytes cultured for 4 h under a carbogen atmosphere were directly used for uptake assays.
The hepatocytes were rinsed three times with HBSS (37 °C) and equilibrated in HBSS for 10 min. […] After 10 min of incubation, cells were quickly washed three times with ice-cold HBSS and then lysed by the addition of 300 μL of purified water. The protein content was measured using the BCA protein assay kit. EZE and EZE-Ph were analyzed by LC-MS/MS.
The rates of substrate uptake were normalized using the protein contents of cell lysates.

OATP1B3 [1] = molecular target: T1, OATP1B3; assay: Inhibition of OATP1B3-mediated uptake in OATP1B3-transfected HEK293 cells by bile acids and rifampicin
[2] = patients with moderate CLD; cited from earlier work
OATP1B3 [3] = molecular target: T1, OATP1B3
[4] = substrate: O=C(O)C1OC(Oc2ccc([C@@H]3[C@@H](CC[C@H](O)c4ccc(F)cc4)C(=O)N3c3ccc(F)cc3)cc2)C(O)C(O)C1O; assay: Uptake of EZE-Ph into OAT3-transfected HEK293 cells; type: in vitro ADME, human; details: other: OAT3 HEK293, uptake time 5 min; 37.0 °C
Description: The kinetic parameters and the half inhibitory concentration (IC50) were calculated using GraphPad Prism. […] The intrinsic clearance (CLint) was calculated as CLint = Vmax/Km.

Row | Molecule | inhibition at 60 min (UGTs) | EZE-Ph uptake by rat hepatocytes in the presence of inhibitor (rat primary hepatocytes; inhibitor 1 μM) | EZE-Ph uptake by rat hepatocytes in the presence of inhibitor (rat primary hepatocytes; inhibitor 100 μM) | IC50 (OATP1B3 [1]) | also measured
1 | C[C@H](CCC(=O)NCC(=O)O)[C@H]1CC[C@H]2[C@@H]3[C@H](O)C[C@@H]4C[C@H](O)CC[C@]4(C)[C@H]3C[C@H](O)[C@]12C [GCA, glycocholic acid] | < 40% | 109% | 16.3% | 79.7 µM | EZE-Ph uptake by rat hepatocytes in the presence of inhibitor (rat primary hepatocytes; inhibitor 10 μM): 64.1%
2 | C=CCN1CC[C@]23c4c5ccc(O)c4O[C@H]2C(=O)CC[C@@]3(O)[C@H]1C5 [Naloxone] | – | – | – | – | decrease of clearance [2]: over 50%
3 | C[C@H](CCC(=O)NCCS(=O)(=O)O)[C@H]1CC[C@H]2[C@@H]3[C@H](O)C[C@@H]4C[C@H](O)CC[C@]4(C)[C@H]3C[C@H](O)[C@]12C [TCA, taurocholic acid] | < 40% | 94.1% | 13.9% | 93.1 µM | –
4 | C[C@H](CCC(=O)NCCS(=O)(=O)O)[C@H]1CC[C@H]2[C@@H]3[C@H](O)C[C@@H]4C[C@H](O)CC[C@]4(C)[C@H]3CC[C@]12C [TCDCA, taurochenodeoxycholic acid] | – | – | – | – | IC50 (OATP1B3 [3]): 7.94 µM
5 | OAT3 (Homo sapiens) (protein, host or cells: HEK293) MTFSEILDRVGSMGHFQFLHVAILGLPILNMANHNLLQIFTAATPVHHCRPPHNASTGPWVLPMGPNGKPERCLRFVHPPNASLPNDTQRAMEPCLDGWVYNSTKDSIVTEWDLVCNSNKLKEMAQSIFMAGILIGGLVLGDLSDRFGRRPILTCSYLLLAASGSGAAFSPTFPIYMVFRFLCGFGISGITLSTVILNVEWVPTRMRAIMSTALGYCYTFGQFILPGLAYAIPQWRWLQLTVSIPFFVFFLSSWWTPESIRWLVLSGKSSKALKILRRVAVFNGKKEEGERLSLEELKLNLQKEISLAKAKYTASDLFRIPMLRRMTFCLSLAWFATGFAYYSLAMGVEEFGVNLYILQIIFGGVDVPAKFITILSLSYLGRHTTQAAALLLAGGAILALTFVPLDLQTVRTVLAVFGKGCLSSSFSCLFLYTSELYPTVIRQTGMGVSNLWTRVGSMVSPLVKITGEVQPFIPNIIYGITALLGGSAALFLPETLNQPLPETIEDLENWSLRAKKPKQEPEVEKASQRIPLQPHGPGLGSS | – | – | – | – | Km [4]: 166 µM; Vmax [4]: 0.000306 µmol/min/mg; Vmax/Km [4]: 1.84 µL/min/mg
